Source: ChEMBL document CHEMBL4831524, “AZD0284, a Potent, Selective, and Orally Bioavailable Inverse Agonist of Retinoic Acid Receptor-Related Orphan Receptor C2” (J Med Chem, 2021)

Legend:
[1] = cells; conditions: Homo sapiens, Th17, 96 h
[2] = in vitro; conditions: human, liver microsomes
[3] = physchem; conditions: 1-octanol/phosphate buffered saline, pH 7.4
[4] = Apparent permeability across apical to basolateral side in human Caco-2 cells; assay type: ADME, cell-based
[5] = Intrinsic permeability of compound from apical to basolateral side in human Caco2 cells; assay type: ADME, cell-based; conditions: Caco-2
[6] = target: Voltage-gated inwardly rectifying potassium channel KCNH2 (Homo sapiens, UniProt Q12809)
[7] = Plasma protein binding in mouse assessed as unbound fraction by equilibrium dialysis; assay type: ADME, cell-free
[8] = Plasma protein binding in rat assessed as unbound fraction by equilibrium dialysis; assay type: ADME, cell-free
[9] = Plasma protein binding in dog assessed as unbound fraction by equilibrium dialysis; assay type: ADME, cell-free, Canis lupus familiaris
[10] = Apparent permeability across basolateral to apical side in human Caco-2 cells; assay type: ADME, cell-based
[11] = system: MDR1; assay: Apparent permeability across apical to basolateral side in dog MDCK-MDR1 cells; assay type: ADME, cell-based, Canis lupus familiaris
[12] = system: MDR1; assay: Apparent permeability across basolateral to apical side in dog MDCK-MDR1 cells; assay type: ADME, cell-based, Canis lupus familiaris
[13] = Metabolic stability in mouse hepatocytes assessed as intrinsic clearance measured per 10^6 cells; assay type: ADME, cell-based, Hepatocyte; conditions: read-out: CLH
[14] = Metabolic stability in dog hepatocytes assessed as intrinsic clearance measured per 10^6 cells; assay type: ADME, cell-based, Canis lupus familiaris, Hepatocyte; conditions: read-out: CLH
[15] = Total plasma clearance in C57BL/6 mouse at 1 mg/kg, iv; assay type: ADME, organism-based
[16] = Total plasma clearance in Han Wistar rat at 1 mg/kg, iv; assay type: ADME, organism-based
[17] = Total plasma clearance in Beagle dog at 1 mg/kg, iv; assay type: ADME, organism-based, Canis lupus familiaris
[18] = Renal clearance in Han Wistar rat at 0.5 mg/kg, iv; assay type: ADME, organism-based, Kidney; conditions: in vivo
[19] = Biliary clearance in Han Wistar rat at 1 mg/kg, iv; assay type: ADME, organism-based, Bile; conditions: in vivo
[20] = Volume of distribution at steady state in C57BL/6 mouse at 1 mg/kg, iv; assay type: ADME, organism-based; conditions: in vivo, read-out: Vdss
[21] = Volume of distribution at steady state in Han Wistar rat at 0.5 mg/kg, iv; assay type: ADME, organism-based; conditions: in vivo, read-out: Vdss
[22] = Volume of distribution at steady state in Beagle dog at 1 mg/kg, iv; assay type: ADME, organism-based, Canis lupus familiaris; conditions: in vivo, read-out: Vdss
[23] = Half life in C57BL/6 mouse at 1 mg/kg, iv; assay type: ADME, organism-based; conditions: in vivo
[24] = Half life in Han Wistar rat at 0.5 mg/kg, iv; assay type: ADME, organism-based; conditions: in vivo
[25] = Half life in Beagle dog at 1 mg/kg, iv; assay type: ADME, organism-based, Canis lupus familiaris; conditions: in vivo
[26] = Oral bioavailability in C57BL/6 mouse at 2 mg/kg using amorphous form of sample; assay type: ADME, organism-based; conditions: in vivo
[27] = Oral bioavailability in Han Wistar rat at 1 mg/kg using amorphous form of sample; assay type: ADME, organism-based; conditions: in vivo
[28] = Oral bioavailability in Beagle dog at 3 mg/kg using amorphous form of sample; assay type: ADME, organism-based, Canis lupus familiaris; conditions: in vivo
[29] = Oral bioavailability in Han Wistar rat at 50 mg/kg using crystaline form of sample; assay type: ADME, organism-based; conditions: in vivo
[30] = Oral bioavailability in Beagle dog at 10 mg/kg using crystaline form of sample; assay type: ADME, organism-based, Canis lupus familiaris; conditions: in vivo
[31] = Oral bioavailability in Han Wistar rat at 50 mg/kg using EtOH form of sample; assay type: ADME, organism-based; conditions: in vivo
[32] = Fraction absorbed in C57BL/6 mouse at 2 mg/kg, po using amorphous form of sample; assay type: ADME, organism-based; conditions: in vivo, read-out: Fabs
[33] = Fraction absorbed in Han Wistar rat at 1 mg/kg, po using amorphous form of sample; assay type: ADME, organism-based; conditions: in vivo, read-out: Fabs
[34] = Fraction absorbed in Beagle dog at 3 mg/kg, po using amorphous form of sample; assay type: ADME, organism-based, Canis lupus familiaris; conditions: in vivo, read-out: Fabs
[35] = Fraction absorbed in Han Wistar rat at 50 mg/kg, po using crystaline form of sample; assay type: ADME, organism-based; conditions: in vivo, read-out: Fabs
[36] = Fraction absorbed in Beagle dog at 10 mg/kg, po using crystaline form of sample; assay type: ADME, organism-based, Canis lupus familiaris; conditions: in vivo, read-out: Fabs
[37] = Fraction absorbed in Han Wistar rat at 50 mg/kg, po using EtOH form of sample; assay type: ADME, organism-based; conditions: in vivo, read-out: Fabs
[38] = species on record: Mus musculus; assay: animal or person; conditions: C57BL/6NCrl, sc, 168 h, read-out: INH
[39] = species on record: Mus musculus; assay: animal or person; conditions: C57BL/6NCrl, sc, 168 h, read-out: INH; remark: listed apart in the source

Chain of Voltage-gated inwardly rectifying potassium channel KCNH2 (Q12809 whole entry): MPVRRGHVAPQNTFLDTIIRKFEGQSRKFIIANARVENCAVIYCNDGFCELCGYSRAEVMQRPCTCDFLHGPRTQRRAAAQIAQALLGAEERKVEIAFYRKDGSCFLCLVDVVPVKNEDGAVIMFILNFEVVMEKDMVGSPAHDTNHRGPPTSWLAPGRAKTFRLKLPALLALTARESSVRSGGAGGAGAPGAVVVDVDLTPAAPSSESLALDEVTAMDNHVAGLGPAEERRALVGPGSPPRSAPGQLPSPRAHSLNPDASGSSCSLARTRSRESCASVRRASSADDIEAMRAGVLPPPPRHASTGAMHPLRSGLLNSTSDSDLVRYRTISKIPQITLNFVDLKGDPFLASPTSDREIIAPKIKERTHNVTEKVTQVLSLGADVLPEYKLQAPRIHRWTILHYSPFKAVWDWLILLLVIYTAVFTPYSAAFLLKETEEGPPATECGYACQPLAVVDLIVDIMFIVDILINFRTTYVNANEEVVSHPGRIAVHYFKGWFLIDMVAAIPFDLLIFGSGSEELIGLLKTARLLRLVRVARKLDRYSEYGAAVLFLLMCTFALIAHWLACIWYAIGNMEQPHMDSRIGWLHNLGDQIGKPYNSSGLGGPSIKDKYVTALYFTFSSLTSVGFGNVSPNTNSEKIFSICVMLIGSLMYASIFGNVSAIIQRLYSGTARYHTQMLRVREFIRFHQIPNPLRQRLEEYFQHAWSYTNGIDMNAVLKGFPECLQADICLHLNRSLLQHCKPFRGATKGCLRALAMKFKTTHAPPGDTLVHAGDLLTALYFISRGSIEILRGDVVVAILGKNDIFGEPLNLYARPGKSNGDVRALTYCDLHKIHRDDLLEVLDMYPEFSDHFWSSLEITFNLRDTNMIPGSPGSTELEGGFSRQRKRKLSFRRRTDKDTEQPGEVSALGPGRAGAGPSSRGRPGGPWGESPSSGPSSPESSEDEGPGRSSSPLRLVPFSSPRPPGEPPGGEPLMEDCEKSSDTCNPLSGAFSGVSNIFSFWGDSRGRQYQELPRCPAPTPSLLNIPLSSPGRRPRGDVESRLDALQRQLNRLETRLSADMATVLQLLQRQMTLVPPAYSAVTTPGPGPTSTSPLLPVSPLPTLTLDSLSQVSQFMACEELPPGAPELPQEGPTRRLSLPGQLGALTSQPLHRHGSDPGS

SMILES: CCS(=O)(=O)c1ccc(C(Cc2nnco2)C(=O)Nc2ccc(C(O)(C(F)(F)F)C(F)(F)F)cc2)cc1 (stereo not given)
- IC50 [1]: 224 nM
- microsomal CLint [2]: < 3 µL/min/mg
- logD [3]: 2.9

SMILES: CS(=O)(=O)c1ccc2c(c1)CN(C(=O)C1CCO1)C2C(=O)Nc1ccc(C(O)(C(F)(F)F)C(F)(F)F)cc1 (stereo not given)
- microsomal CLint [2]: < 3 µL/min/mg
- logD [3]: 2.2

SMILES: CCS(=O)(=O)c1ccc(C(NC(C)=O)C(=O)Nc2ccc(C(O)(C(F)(F)F)C(F)(F)F)cc2)nc1 (stereo not given)
- Papp A→B [4]: 0.7 ×10⁻⁶ cm/s
- Pm [5]: 7.7
- IC50 [1]: 63 nM
- microsomal CLint [2]: < 3 µL/min/mg
- logD [3]: 2.5

SMILES: CCS(=O)(=O)c1ccc2c(c1)CN(C(=O)CCC#N)C2C(=O)Nc1ccc(C(O)(C(F)(F)F)C(F)(F)F)cc1 (stereo not given)
- microsomal CLint [2]: < 3 µL/min/mg
- logD [3]: 2.5

SMILES: CCS(=O)(=O)c1ccc2c(c1)CN(C=O)C2C(=O)Nc1ccc(C(O)(C(F)(F)F)C(F)(F)F)cc1 (stereo not given)
- microsomal CLint [2]: < 3 µL/min/mg
- logD [3]: 2.9

SMILES: CS(=O)(=O)c1ccc2c(c1)CN(C(=O)CCC#N)C2C(=O)Nc1ccc(C(O)(C(F)(F)F)C(F)(F)F)cc1 (stereo not given)
- microsomal CLint [2]: < 3 µL/min/mg
- logD [3]: 2.3

SMILES: CCS(=O)(=O)c1ccc(C(NC(=O)CC2CC2)C(=O)Nc2ccc(C(O)(C(F)(F)F)C(F)(F)F)cc2)nc1 (stereo not given)
- Papp A→B [4]: 1.1 ×10⁻⁶ cm/s
- Pm [5]: 14.2
- IC50 [6]: 34 µM
- IC50 [1]: 20 nM
- microsomal CLint [2]: 22 µL/min/mg
- logD [3]: 3.5

SMILES: CC(=O)N1Cc2cc(S(C)(=O)=O)ccc2[C@H]1C(=O)Nc1ccc(C(O)(C(F)(F)F)C(F)(F)F)cc1
- microsomal CLint [2]: < 3 µL/min/mg
- logD [3]: 2.4

SMILES: CCS(=O)(=O)c1ccc(C(NC(=O)Cc2ccccc2)C(=O)Nc2ccc(C(O)(C(F)(F)F)C(F)(F)F)cc2)nc1 (stereo not given)
- Papp A→B [4]: 0.9 ×10⁻⁶ cm/s
- Pm [5]: 29
- IC50 [6]: 16 µM
- microsomal CLint [2]: 21 µL/min/mg
- logD [3]: 4

SMILES: CCS(=O)(=O)c1ccc(C(Cn2cccn2)C(=O)Nc2ccc(C(O)(C(F)(F)F)C(F)(F)F)cc2)cc1 (stereo not given)
- Papp A→B [4]: 2.6 ×10⁻⁶ cm/s
- Pm [5]: 44
- IC50 [6]: 2.4 µM
- IC50 [1]: 360 nM
- microsomal CLint [2]: 16 µL/min/mg
- logD [3]: > 4

SMILES: CCS(=O)(=O)c1ccc(C(CC(=O)NC)C(=O)Nc2ccc(C(O)(C(F)(F)F)C(F)(F)F)cc2)cc1 (stereo not given)
- Papp A→B [4]: 0.4 ×10⁻⁶ cm/s
- Pm [5]: 8
- microsomal CLint [2]: < 3 µL/min/mg
- logD [3]: 3.1

SMILES: CS(=O)(=O)c1ccc2c(c1)CNC2C(=O)Nc1ccc(C(O)(C(F)(F)F)C(F)(F)F)cc1 (stereo not given)
- microsomal CLint [2]: < 3 µL/min/mg
- logD [3]: 3

SMILES: CNS(=O)(=O)c1ccc2c(c1)CN(C(C)=O)C2C(=O)Nc1ccc(C(O)(C(F)(F)F)C(F)(F)F)cc1 (stereo not given)
- microsomal CLint [2]: < 3 µL/min/mg
- logD [3]: 2.8

SMILES: COCCS(=O)(=O)c1ccc2c(c1)CN(C(C)=O)C2C(=O)Nc1ccc(C(O)(C(F)(F)F)C(F)(F)F)cc1 (stereo not given)
- microsomal CLint [2]: 11 µL/min/mg
- logD [3]: 2.5

SMILES: CCS(=O)(=O)c1ccc([C@@H](CC(=O)NC)C(=O)Nc2ccc(C(O)(C(F)(F)F)C(F)(F)F)cc2)cc1
- Papp A→B [4]: 0.3 ×10⁻⁶ cm/s
- Pm [5]: 3.2
- IC50 [6]: > 40 µM
- microsomal CLint [2]: < 3 µL/min/mg
- logD [3]: 3.2

SMILES: NCCC(=O)N1Cc2cc(S(=O)(=O)CC3CC3)ccc2C1C(=O)Nc1ccc(C(O)(C(F)(F)F)C(F)(F)F)cc1 (stereo not given)
- microsomal CLint [2]: < 3 µL/min/mg
- logD [3]: 1.1

SMILES: CCS(=O)(=O)c1ccc(C(NC(=O)OC)C(=O)Nc2ccc(C(O)(C(F)(F)F)C(F)(F)F)cc2)nc1 (stereo not given)
- IC50 [6]: 9.3 µM
- microsomal CLint [2]: < 3 µL/min/mg
- logD [3]: 2.9

SMILES: CC(=O)N1Cc2cc(S(C)(=O)=O)ccc2[C@@H]1C(=O)Nc1ccc(C(O)(C(F)(F)F)C(F)(F)F)cc1
- fraction unbound [7]: 0.21
- fraction unbound [8]: 0.23
- fraction unbound [9]: 0.12
- Papp B→A [10]: 16 ×10⁻⁶ cm/s
- Papp A→B [11]: 0.9 ×10⁻⁶ cm/s
- Papp B→A [12]: 16 ×10⁻⁶ cm/s
- hepatocyte CLint [13]: 2.3 µL/min/1e6 cells
- hepatocyte CLint [14]: < 1 µL/min/1e6 cells
- clearance [15]: 10.5 mL/min/kg
- clearance [16]: 12.4 mL/min/kg
- clearance [17]: 1.9 mL/min/kg
- CL renal [18]: 2.9 mL/min/kg
- CL [19]: 0.4 mL/min/kg
- Vd [20]: 1.3 L/kg
- Vd [21]: 2.5 L/kg
- Vd [22]: 1.9 L/kg
- half-life [23]: 162 min
- half-life [24]: 198 min
- half-life [25]: 996 min
- bioavailability [26]: 67%
- bioavailability [27]: 34%
- bioavailability [28]: 97%
- bioavailability [29]: 5%
- bioavailability [30]: 50%
- bioavailability [31]: 35%
- Fa [32]: 71%
- Fa [33]: 41%
- Fa [34]: 99%
- Fa [35]: 6%
- Fa [36]: 52%
- Fa [37]: 42%
- microsomal CLint [2]: < 3 µL/min/mg
- logD [3]: 2.4
- inhibition in vivo at 15 mg/kg [38]: 67%
- inhibition in vivo at 50 mg/kg [39]: 65%
